From patent US12485132B2, “GPX4 inhibitors and senolytic compounds and uses thereof” (Rubedo Life Sciences, Inc., priority 2023, dated 2025)

tested on: senescent A549 cells; assay: Senescence assay: viability of senescent A549 cells; type: cell-based; settings: Homo sapiens, 24-72 hours incubation, viability by CellTiter-Glo or XTT, read-out: Absolute IC50 average A549_SEN IC50
Description: (§1) Cells were maintained in DMEM media (high glucose, 4 mM L-glutamine, no sodium pyruvate) supplemented with 10% fetal bovine serum in a humidified incubator at 37° C. with 5% carbon dioxide. Senescence was induced via treatment with a sublethal concentration of chemotherapy (bleomycin, gemcitabine, doxorubicin, 5-fluorouridine), followed by a rest period without chemotherapy similarly to what is reported by others in the field (e.g., Aoshiba et al., 2003 Eur Respir J 22:436-443). Senescence was qualified by low EdU (5-ethynyl-2′-deoxyuridine) incorporation and high SA-β-Gal (senescence-associated beta-galactosidase) staining compared to proliferating untreated cells. Senescent cells were plated into 96-well plates at a density of 5-15,000 cells/well. The next day, compounds were added in duplicate across ten different concentrations spanning roughly four Log10 units. Cells were incubated with the compounds for 24-72 hours, at which point viability was quantified using CellTiter-Glo (Promega) or XTT (R&D Systems). The viability for treated cells was determined relative to untreated control cells. The log of the compound concentration vs. normalized mean viability was fit to a four parameters Hill function with variable slope. The bottom was constrained to be greater than zero. The X mean value for Y=50 was interpolated to determine the absolute IC50. The results in Table 2 indicate that many of the compounds are active in cells and can induce a dose dependent decrease in the viability of senescent HEPG2 and A549 cells.

SMILES | IC50
C#CC(F)(F)[C@]1(O)CC[C@H]2[C@@H]3CCC4=C/C(=N/OCCN5CCNCC5)CCC4=C3[C@@H](c3ccc(C4CC4)cc3)C[C@@]21C [Compound 7, (8S,11R,13S,14S,17S,E)-11-(4-cyclopropylphenyl)-17-(1,1-difluoroprop-2-yn-1-yl)-17-hydroxy-13-methyl-1,2,6,7,8,11,12,13,14,15,16,17-dodecahydro-3H-cyclopenta[a]phenanthren-3-one O-(2-(piperazin-1-yl)ethyl)oxime] | 10 to 100 nM
C#CC(F)(F)[C@]1(O)CC[C@H]2[C@@H]3CCC4=C(Cl)C(=O)CCC4=C3[C@H](c3ccc(C4CC4)cc3)C[C@@]21C [Compound 52, (8S,11S,13S,14S,17S)-4-chloro-11-(4-cyclopropylphenyl)-17-(1,1-difluoroprop-2-yn-1-yl)-17-hydroxy-13-methyl-1,2,6,7,8,11,12,13,14,15,16,17-dodecahydro-3H-cyclopenta[a]phenanthren-3-one] | 10 to 100 nM
C#CC(F)(F)[C@]1(O)CC[C@H]2[C@@H]3CCC4=CC(=O)CCC4=C3[C@@H](c3ccc(OCC(F)(F)F)cc3)C[C@@]21C [Compound 53, (8S,11R,13S,14S,17S)-17-(1,1-difluoroprop-2-yn-1-yl)-17-hydroxy-13-methyl-11-(4-(2,2,2-trifluoroethoxy)phenyl)-1,2,6,7,8,11,12,13,14,15,16,17-dodecahydro-3H-cyclopenta[a]phenanthren-3-one] | 10 to 100 nM
C#CC(F)(F)[C@]1(O)CC[C@H]2[C@@H]3CCC4=C/C(=N/NC(=O)NC5CC5)CCC4=C3[C@H](c3ccc(OCC(F)(F)F)cc3)C[C@@]21C [Compound 55, (E)-N-cyclopropyl-2-((8S,11S,13S,14S,17S)-17-(1,1-difluoroprop-2-yn-1-yl)-17-hydroxy-13-methyl-11-(4-(2,2,2-trifluoroethoxy)phenyl)-1,2,6,7,8,11,12,13,14,15,16,17-dodecahydro-3H-cyclopenta[a]phenanthren-3-ylidene)hydrazine-1-carboxamide] | 10 to 100 nM
C#CC(F)(F)[C@]1(O)CC[C@H]2[C@@H]3CCC4=CC(=O)CCC4=C3[C@H](c3ccc(OCc4ccc(S(=O)(=O)C(F)(F)F)cc4)cc3)C[C@@]21C [Compound 57, (8S,11S,13S,14S,17S)-17-(1,1-difluoroprop-2-yn-1-yl)-17-hydroxy-13-methyl-11-(4-((4-((trifluoromethyl)sulfonyl)benzyl)oxy)phenyl)-1,2,6,7,8,11,12,13,14,15,16,17-dodecahydro-3H-cyclopenta[a]phenanthren-3-one] | 10 to 100 nM
C#CC(F)(F)[C@]1(O)CC[C@H]2[C@@H]3CCC4=C(Cl)C(=O)CCC4=C3[C@H](c3ccc(OCC(F)(F)F)cc3)C[C@@]21C [Compound 59, (8S,11S,13S,14S,17S)-4-chloro-17-(1,1-difluoroprop-2-yn-1-yl)-17-hydroxy-13-methyl-11-(4-(2,2,2-trifluoroethoxy)phenyl)-1,2,6,7,8,11,12,13,14,15,16,17-dodecahydro-3H-cyclopenta[a]phenanthren-3-one] | 10 to 100 nM
C#CC(F)(F)[C@]1(O)CC[C@H]2[C@@H]3CCC4=CC(=O)CCC4=C3[C@H](c3ccc(OCC4(C)CCC4)cc3)C[C@@]21C [Compound 60, (8S,11S,13S,14S,17S)-17-(1,1-difluoroprop-2-yn-1-yl)-17-hydroxy-13-methyl-11-(4-((1-methylcyclobutyl)methoxy)phenyl)-1,2,6,7,8,11,12,13,14,15,16,17-dodecahydro-3H-cyclopenta[a]phenanthren-3-one] | 0.1 to 10 nM
C#CC(F)(F)[C@]1(O)CC[C@H]2[C@@H]3CCc4cc(OCCN5CCOCC5)ccc4C3[C@@H](c3ccc(S(=O)(=O)C4CC4)cc3)C[C@@]21C (stereo partly drawn) [Compound 77, (8S,11S,13S,14S,17S)-11-(4-(cyclopropylsulfonyl)phenyl)-17-(1,1-difluoroprop-2-yn-1-yl)-13-methyl-3-(2-morpholinoethoxy)-7,8,9,11,12,13,14,15,16,17-decahydro-6H-cyclopenta[a]phenanthren-17-ol] | ≥ 1000 nM

More lines, now with the values ahead:

IC50 | SMILES
10 to 100 nM | C#CC(F)(F)[C@]1(O)CC[C@H]2[C@@H]3CCC4=C/C(=N/NC(=O)NCC5CC5)CCC4=C3[C@H](c3ccc(S(=O)(=O)C4CC4)cc3)C[C@@]21C [Compound 62, (E)-N-(cyclopropylmethyl)-2-((8S,11S,13S,14S,17S)-11-(4-(cyclopropylsulfonyl)phenyl)-17-(1,1-difluoroprop-2-yn-1-yl)-17-hydroxy-13-methyl-1,2,6,7,8,11,12,13,14,15,16,17-dodecahydro 3H-cyclopenta[a]phenanthren-3-ylidene)hydrazine-1-carboxamide]
10 to 100 nM | C#CC(F)(F)[C@]1(O)CC[C@H]2[C@@H]3CCC4=CC(=O)CCC4=C3[C@H](c3ccc(OS(=O)(=O)C(F)(F)F)cc3)C[C@@]21C [Compound 63, 4-((8S,11S,13S,14S,17S)-17-(1,1-difluoroprop-2-yn-1-yl)-17-hydroxy-13-methyl-3-oxo-2,3,6,7,8,11,12,13,14,15,16,17-dodecahydro-1H-cyclopenta[a]phenanthren-11-yl)phenyl trifluoromethanesulfonate]
100 to 1000 nM | C#CC(F)(F)[C@]1(O)CC[C@H]2[C@@H]3CCC4=CC(=N[N+](C)(C)C)CCC4=C3[C@H](c3ccc(C4CC4)cc3)C[C@@]21C [Compound 66, 2-((8S,11S,13S,14S,17S)-11-(4-cyclopropylphenyl)-17-(1,1-difluoroprop-2-yn-1-yl)-17-hydroxy-13-methyl-1,2,6,7,8,11,12,13,14,15,16,17-dodecahydro-3H-cyclopenta[a]phenanthren-3-ylidene)-1,1,1-trimethylhydrazin-1-ium]
10 to 100 nM | C#CC(F)(F)[C@]1(O)CC[C@H]2[C@@H]3CCC4=C/C(=N/OCCN)CCC4=C3[C@H](c3ccc(C4CC4)cc3)C[C@@]21C [Compound 68, 2-((((8S,11S,13S,14S,17S,E)-11-(4-cyclopropylphenyl)-17-(1,1-difluoroprop-2-yn-1-yl)-17-hydroxy-13-methyl-1,2,6,7,8,11,12,13,14,15,16,17-dodecahydro-3H-cyclopenta[a]phenanthren-3-ylidene)amino)oxy)ethan-1-aminium chloride]
10 to 100 nM | C#CC(F)(F)[C@]1(O)CC[C@H]2[C@@H]3CCC4=C/C(=N/NC(=O)[C@H]5C[C@H](O)C5)CCC4=C3[C@@H](c3ccc(OCC(F)(F)F)cc3)C[C@@]21C [Compound 71, trans-N′-((8S,11R,13S,14S,17S)-17-(1,1-difluoroprop-2-yn-1-yl)-17-hydroxy-13-methyl-11-(4-(2,2,2-trifluoroethoxy)phenyl)-1,2,6,7,8,11,12,13,14,15,16,17-dodecahydro-3H-cyclopenta[a]phenanthren-3-ylidene)-3-hydroxycyclobutane-1-carbohydrazide]
10 to 100 nM | C#CC(F)(F)[C@]1(O)CC[C@H]2[C@@H]3CCC4=CC(=O)CCC4=C3[C@@H](c3ccc(OCC4(C)COC4)cc3)C[C@@]21C [Compound 72, (8S,11R,13S,14S,17S)-17-(1,1-difluoroprop-2-yn-1-yl)-17-hydroxy-13-methyl-11-(4-((3-methyloxetan-3-yl)methoxy)phenyl)-1,2,6,7,8,11,12,13,14,15,16,17-dodecahydro-3H-cyclopenta[a]phenanthren-3-one]

tested on: senescent HEPG2 cells; assay: Senescence assay: viability of senescent HEPG2 cells; type: cell-based; settings: Homo sapiens, 24-72 hours incubation, viability by CellTiter-Glo or XTT, read-out: Absolute IC50 average HEPG2_SEN IC50
Description: as §1

IC50 | SMILES
0.1 to 10 nM | C#CC(F)(F)[C@]1(O)CC[C@H]2[C@@H]3CCC4=C/C(=N/NC(=O)OCC)CCC4=C3[C@H](c3ccc(C4CC4)cc3)C[C@@]21C [Compound 40, ethyl (E)-2-((8S,11S,13S,14S,17S)-11-(4-cyclopropylphenyl)-17-(1,1-difluoroprop-2-yn-1-yl)-17-hydroxy-13-methyl-1,2,6,7,8,11,12,13,14,15,16,17-dodecahydro-3H-cyclopenta[a]phenanthren-3-ylidene)hydrazine-1-carboxylate]
0.1 to 10 nM | C#CC(F)(F)[C@]1(O)CC[C@H]2[C@@H]3CCC4=C/C(=N/NC(N)=O)CCC4=C3[C@H](c3ccc(C4CC4)cc3)C[C@@]21C [Compound 41, (E)-2-((8S,11S,13S,14S,17S)-11-(4-cyclopropylphenyl)-17-(1,1-difluoroprop-2-yn-1-yl)-17-hydroxy-13-methyl-1,2,6,7,8,11,12,13,14,15,16,17-dodecahydro-3H-cyclopenta[a]phenanthren-3-ylidene)hydrazine-1-carboxamide]
0.1 to 10 nM | C#CC(F)(F)[C@]1(O)CC[C@H]2[C@@H]3CCC4=C/C(=N/NC(=O)NCC5CC5)CCC4=C3[C@H](c3ccc(C4CC4)cc3)C[C@@]21C [Compound 50, (E)-N-(cyclopropylmethyl)-2-((8S,11S,13S,14S,17S)-11-(4-cyclopropylphenyl)-17-(1,1-difluoroprop-2-yn-1-yl)-17-hydroxy-13-methyl-1,2,6,7,8,11,12,13,14,15,16,17-dodecahydro-3H-cyclopenta[a]phenanthren-3-ylidene)hydrazine-1-carboxamide]
0.1 to 10 nM | C#CC(F)(F)[C@]1(O)CC[C@H]2[C@@H]3CCC4=CC(=NOCCOCCOCCOCCNC(=O)CCCCC5SCC6NC(=O)NC65)CCC4=C3[C@@H](c3ccc(C4CC4)cc3)C[C@@]21C (stereo partly drawn) [compound 21]
